What is called MIC is the least concentration at which growth counts as inhibited.

The results in this text go back to paper PMC9334274, “A unique class of Zn^2+-binding serine-based PBPs underlies cephalosporin resistance and sporogenesis in Clostridioides difficile” (Nature Communications, 2022).

For assay [1], the system named is C. difficile strain R20291. Briefly: Minimum inhibitory concentration (MIC) determination. The conditions noted are these: for MIC: Clostridioides difficile, R20291, 24 h.
For assay [2], the system named is C. difficile PBP3. The assay is classed as binding, Clostridioides difficile R20291. The conditions noted are these: for PBP3 % inhibiton: 25 µM.
In assay [3] the test system is Ldt2. Briefly: Nitrocefin inhibition assay, Ldt2. The assay is classed as biochemical, Clostridioides difficile R20291. The conditions noted are these: for Nitrcoefin hydrolysis vs inhibitor (reaction curve reading): Idt2, representative curve; for Ldt2 % inhibiton: β-lactam at 25 uM, nitrocefin hydrolysis, two independent experiments, individual values. How it is done:
Reactions were performed in a 96-well polystyrene plate with a final volume of 60 μL at 37 °C in 20 mM Tris pH 7, 200 mM NaCl. […] Protein was then added to the well for a final concentration of 1 µM and incubated for 15 min at 37 °C. 1 µL of nitrocefin (Millipore Sigma) was then added to each well for a final concentration of 20 µM, and reaction progress was monitored using a BioTek Cytation 5 plate reader (BioTek Instruments) at 488 nm and 37 °C for 1 h. Reaction rates were normalized to the control (no inhibitor) for % inhibition values. Assays were performed in duplicate and mean % inhibition values was calculated.

Assay [4] concerns Ldt3. It is filed as biochemical, Clostridioides difficile R20291. The conditions noted are these: for Ldt3 % inhibiton / inhibition of Ldt3 (in words): 25 µM.

Converted amounts (≈) assume the structure as drawn. “And” between values parts separate entries of the source, which are not always exact repeats. Equal values may be shown once. “Also recorded” adds a separate entry of the source. Read-outs that look alike come from different tables or passages of the source.

Take `Cc1onc(-c2ccccc2Cl)c1C(=O)N[C@@H]1C(=O)N2[C@@H]1SC(C)(C)[C@@H]2C(=O)O` [cloxacillin]: inhibition of growth in assay [1] (MIC) required 16 µg/mL (≈ 36.7 µM). The PBP3 % inhibiton in assay [2] was 82.7754% and 83.7053% and 84.4216%. Moreover, the “Nitrcoefin hydrolysis vs inhibitor (reaction curve reading)” value (“Nitrcoefin hydrolysis vs inhibitor” below) worked out at 0.044 in assay [3] (time 0 s); 0.046 in assay [3] (time 300 s); 0.048 in assay [3] (time 600 s); 0.05 in assay [3] (time 900 s); 0.051 in assay [3] (time 1200 s); 0.053 in assay [3] (time 1500 s). The “Nitrcoefin hydrolysis vs inhibitor” value is 0.054 in assay [3] (time 1800 s); 0.056 in assay [3] (time 2100 s); 0.057 in assay [3] (time 2400 s); 0.044 in assay [4] (time 0 s); 0.045 in assay [4] (time 300 s); 0.045 in assay [4] (time 600 s). The “Nitrcoefin hydrolysis vs inhibitor” value in assay [4] (time 900 s), in assay [4] (time 1200 s), in assay [4] (time 1500 s), in assay [4] (time 1800 s), in assay [4] (time 2100 s) and in assay [4] (time 2400 s) was 0.046 in each case. The Ldt2 % inhibiton in assay [3] (listed as ClX, 25 µM) was 15.534% and 20.6288%. Further, the Ldt3 % inhibiton in assay [4] is 89.2086% and 94.2975%. In assay [4], the “inhibition of Ldt3 (in words)” value is “best”.

`C[C@@H](O)[C@H]1C(=O)N2C(C(=O)O)=C(SCCN=CN)C[C@H]12` [imipenem] showed an MIC in assay [1] of 128 µg/mL (≈ 428 µM). In addition, the PBP3 % inhibiton in assay [2] was 83.9601% and 87.3785% and 88.7659%. Moreover, in assay [3] (listed as IMI, 25 µM), the Ldt2 % inhibiton is 15.7605% and 16.7178%.

Take `CC(C)(O/N=C(\C(=O)N[C@@H]1C(=O)N2C(C(=O)[O-])=C(C[n+]3ccccc3)CS[C@H]12)c1csc(N)n1)C(=O)O` [ceftazidime]: in assay [1], the minimal inhibitory concentration (MIC) was 256 µg/mL (≈ 468 µM). Moreover, the PBP3 % inhibiton in assay [2] is 100% and 96.9383%.

`CC(=O)OCC1=C(C(=O)O)N2C(=O)[C@@H](NC(=O)[C@H](N)c3ccccc3)[C@H]2SC1` [cephaloglycin]: the MIC in assay [1] was 256 µg/mL (≈ 631 µM). In addition, the PBP3 % inhibiton in assay [2] is 95.4184% and 89.9822% and 93.12%. This molecule also showed a Ldt2 % inhibiton in assay [3] of 0%. Besides, the Ldt3 % inhibiton in assay [4] is 9.353% and 13.9669%.

Molecule `C[C@@H](O)[C@H]1C(=O)N2C(C(=O)O)=C(S[C@@H]3CN[C@H](C(=O)N(C)C)C3)[C@H](C)[C@H]12` [meropenem] came in with an MIC in assay [1] of 4 µg/mL (≈ 10.4 µM). The PBP3 % inhibiton in assay [2] was 95.105% and 95.5466% and 97.2164%. Besides, the “inhibition of Ldt2 (in words)” value in assay [3] (25 µM) is given as “best inhibitors of Ldt2”. Further, in assay [3] (listed as MEM, 25 µM), the Ldt2 % inhibiton was 88.3495% and 88.0368%. Further, the Ldt3 % inhibiton in assay [4] is 25.5396% and 27.8512%.

In the case of `CO/N=C(\C(=O)N[C@@H]1C(=O)N2C(C(=O)O)=C(/C=C\c3scnc3C)CS[C@H]12)c1csc(N)n1` [cefditoren], in assay [1], 16 µg/mL (≈ 31.6 µM) was the least that counted as inhibitory (MIC). For the same molecule, the PBP3 % inhibiton in assay [2] is 82.5587% and 73.9018% and 78.609%. Further, the Ldt2 % inhibiton in assay [3] (listed as CDN, 25 µM) is 13.9657% and 18.7883%. In addition, in assay [4], the Ldt3 % inhibiton was 72.482% and 72.4793%; the “inhibition of Ldt3 (in words)” value was “best”.

In assay [1], `CCN1CCN(C(=O)N[C@@H](C(=O)N[C@@H]2C(=O)N3[C@@H]2SC(C)(C)[C@@H]3C(=O)O)c2ccccc2)C(=O)C1=O` [piperacillin] came in with a minimal inhibitory concentration (MIC) of 16 µg/mL (≈ 30.9 µM). In assay [2], the PBP3 % inhibiton was 92.03% and 94.7239% and 96.6236%. In addition, the “inhibition of Ldt2 (in words)” value in assay [3] (25 µM) is reported as “best inhibitors of Ldt2”. In addition, the Ldt2 % inhibiton in assay [3] (listed as PIP, 25 µM) was 57.879% and 59.7393%. Further, the Ldt3 % inhibiton in assay [4] was 51.7086% and 57.3554%.

On to `COc1cccc(OC)c1C(=O)N[C@@H]1C(=O)N2[C@@H]1SC(C)(C)[C@@H]2C(=O)O` [methicillin], for which the MIC in assay [1] came to 8 µg/mL (≈ 21 µM). For the same molecule, the PBP3 % inhibiton in assay [2] was 92.4606% and 92.3713% and 94.0819%.

Regarding `CC1(C)S[C@@H]2[C@H](NC(=O)Cc3ccccc3)C(=O)N2[C@H]1C(=O)O` [penicillin G], in assay [1], the “MIC (X)” value amounted to 1 and the MIC was found to be 1 µg/mL (≈ 2.99 µM). Besides, the PBP3 % inhibiton in assay [2] was 94.9098% and 94.1115% and 95.4645%. The Ldt2 % inhibiton in assay [3] (listed as EM, 25 µM) was 2.091% and 5.675%. The Ldt3 % inhibiton in assay [4] is 58.9928% and 66.7769%.

As for `CO/N=C(\C(=O)N[C@@H]1C(=O)N2C(C(=O)O)=C(COC(C)=O)CS[C@H]12)c1csc(N)n1` [cefotaxime], in assay [1], the “MIC (X)” value worked out at 256 and the lowest concentration to inhibit growth (MIC) was 256 µg/mL (≈ 562 µM). For the same molecule, the PBP3 % inhibiton in assay [2] is 100.738% and 94.6733% and 99.7428%. Further, the Ldt2 % inhibiton in assay [3] (listed as CTX, 25 µM) is 12.8454% and 16.2577%. Moreover, the Ldt3 % inhibiton in assay [4] was 7.194% and 11.4876%.

`CO/N=C(\C(=O)N[C@@H]1C(=O)N2C(C(=O)O)=C(COC(N)=O)CS[C@H]12)c1ccco1` [cefuroxime] yielded a minimum inhibitory concentration (MIC) in assay [1] of 128 µg/mL (≈ 302 µM). Further, the PBP3 % inhibiton in assay [2] was 99.6269% and 93.7981% and 97.4091%.

On to `CC1(C)S[C@@H]2[C@H](NC(=O)[C@H](N)c3ccccc3)C(=O)N2[C@H]1C(=O)O` [ampicillin], for which, in assay [1], the “MIC (X)” value was 2 and the MIC stood at 2 µg/mL (≈ 5.72 µM). In assay [2], the PBP3 % inhibiton was 92.7496% and 89.9467% and 91.5944%. In addition, in assay [3] (listed as AMP, 25 µM), the Ldt2 % inhibiton is 1.643% and 4.064%.

Molecule `CC1=C(C(=O)O)N2C(=O)[C@@H](NC(=O)[C@H](N)c3ccccc3)[C@H]2SC1` [cephalexin] had a minimum inhibitory concentration (MIC) in assay [1] of 4 µg/mL (≈ 11.5 µM). For the same molecule, the “inhibition of PBP3 (in words)” value in assay [2] is “little to no biochemical inhibition; also recorded: no detectable inhibition”. Further, the “inhibition of Ldt2 (in words)” value in assay [3] (25 µM) was “failing to inhibit”. Further, the Ldt2 % inhibiton in assay [3] worked out at 0%. In assay [4], the Ldt3 % inhibiton came out at 0% and the “inhibition of Ldt3 (in words)” value was “failing to inhibit”.

For `C[C@H]1[C@H](NC(=O)/C(=N\OC(C)(C)C(=O)O)c2csc(N)n2)C(=O)N1S(=O)(=O)O` [aztreonam], the MIC in assay [1] amounted to 256 µg/mL (≈ 588 µM).

For the molecule `CC(=O)OCC1=C(C(=O)O)N2C(=O)[C@@H](NC(=O)Cc3cccs3)[C@H]2SC1` [cephalothin], the MIC in assay [1] worked out at 64 µg/mL (≈ 161 µM). In addition, the PBP3 % inhibiton in assay [2] is 97.9928% and 94.8412% and 96.842%. Also, the Ldt2 % inhibiton in assay [3] is reported as 0%. Besides, in assay [4], the Ldt3 % inhibiton is 13.1295% and 19.9174%.

Turning to `Nc1nc(/C(=N/O)C(=O)N[C@@H]2C(=O)N3C(C(=O)O)=C(/C=C4\CCN([C@@H]5CCNC5)C4=O)CS[C@H]23)ns1` [ceftobiprole], the MIC in assay [1] came out at 2 µg/mL (≈ 3.74 µM). The PBP3 % inhibiton in assay [2] is 100% and 96.748%. For the same molecule, in assay [3] (listed as BPR, 25 µM), the Ldt2 % inhibiton was 0% and 4.7546%. Moreover, in assay [4], the Ldt3 % inhibiton was 8.0036% and 4.298%.

For the molecule `CO/N=C(\C(=O)N[C@@H]1C(=O)N2C(C(=O)O)=C(CSc3nc(=O)c(=O)[nH]n3C)CS[C@H]12)c1csc(N)n1` [ceftriaxone], it took 32 µg/mL (≈ 57.7 µM) to inhibit growth in assay [1] (MIC). For the same molecule, the PBP3 % inhibiton in assay [2] is 101.93% and 95.7776% and 100%.

Regarding `C[C@@H](O)[C@H]1C(=O)N2C(C(=O)O)=C(S[C@@H]3CN[C@H](CNS(N)(=O)=O)C3)[C@H](C)[C@H]12` [doripenem], 1 µg/mL (≈ 2.38 µM) was the least that counted as inhibitory in assay [1] (MIC). In addition, in assay [2], the PBP3 % inhibiton was 95.9747% and 95.7759% and 97.3818%. In addition, the “inhibition of Ldt2 (in words)” value in assay [3] (25 µM) is reported as “best inhibitors of Ldt2”. The “Nitrcoefin hydrolysis vs inhibitor” value was 0.043 in assay [3] (time 0 s); 0.044 in assay [3] (time 300 s); 0.045 in assay [3] (time 600 s); 0.045 in assay [3] (time 900 s); 0.045 in assay [3] (time 1200 s); 0.045 in assay [3] (time 1500 s). In addition, the “Nitrcoefin hydrolysis vs inhibitor” value in assay [3] (time 1800 s) is reported as 0.046; in assay [3] (time 2100 s), 0.046; in assay [3] (time 2400 s) it was 0.047; in assay [4] (time 0 s) it was 0.045; in assay [4] (time 300 s), 0.046; in assay [4] (time 600 s), 0.048. In addition, the “Nitrcoefin hydrolysis vs inhibitor” value in assay [4] (time 900 s) is listed as 0.049; in assay [4] (time 1200 s), 0.05; in assay [4] (time 1500 s), 0.051; in assay [4] (time 1800 s), 0.052; in assay [4] (time 2100 s), 0.052; in assay [4] (time 2400 s), 0.053. In addition, in assay [3] (listed as DOR, 25 µM), the Ldt2 % inhibiton is 92.8305% and 93.0982%. Further, in assay [4], the Ldt3 % inhibiton is 49.0108% and 45.9504%.
